Results taken from US5391540A, “Substituted pyridine compounds” (Rohm and Haas Company, priority 1993, dated 1995).

How the values were obtained:
Format in all cases: in vivo
Jiwe = assay: plant injury after spraying emerged plants (Table D); design: scale not given here
Text: (§1) Topsoil (silt loam) is sieved through a screen having 1.27 cm openings. In some of the tests the soil was mixed with fertilizer (1225 g/cu. m of 12/5/9 containing isobutylidene diurea), while in other tests the fertilizer was omitted. This mixture is steam sterilized and then placed in aluminum pans 6.985 cm deep having ten holes in the bottom each 0.635 cm in diameter. The soil mixture is compacted to a depth of 1.27 cm. from the top of the pan. A predetermined number of seeds of each of several dicotyledonous and monocotyledonous annual plant species and/or vegetative propagules for the perennial plant species are placed on the soil and pressed into the soil surface. The seeds and/or vegetative propagules are covered with 1.27 cm of a mixture of 50% topsoil and 50% of a mixture of Canadian sphagnum peat moss, vermiculite and a wetting agent. The pans are then placed on a capillary mat on a greenhouse bench and subirrigated as needed. After the plants reach the desired stage (9 to 14 days, 1 to 3 true leaf stage), each pan (except the control pans) is removed to a spraying chamber and sprayed by means of an atomizer, operating at a spray pressure of 170.3 kPa ([…]) at the application rates noted in Table D. In the spray solution is an amount of an emulsifying agent mixture (35% butylamine salt of dodecylbenzenesulfonic acid and 65% tall oil condensed with ethylene oxide in the ratio of 11 mols of ethylene oxide/mol of tall oil) to give a spray solution or suspension. The spray solution or suspension contains a sufficient amount of the candidate chemical in order to give application rates of the active ingredient corresponding to those shown in Table D below while applying a total amount of solution or suspension equivalent to 1870 L/Ha (200 gallons/acre). The pans are returned to the greenhouse and watered as before and the injury to the plants as compared to the control pans is observed at approximately 10-14 days (usually 11 days).
(§2) In the following Table D the legends used to identify the plant species are the same as those used in the preceding Table B.

Rape = assay: as above; design: scale not given here
Text: as §1, §2

Cotz = assay: as above; design: scale not given here
Text: as §1, §2

Wild Buckwheat = assay: Pre-emergent herbicidal activity (Table A); conditions: Fallopia convolvulus, pre-emergence, Wibw, 11.2 kg/ha, 10-14 days, read-out: herbicidal rating (% inhibition)
In short: (§3)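 Compound incorporated into the cover-soil layer over sown seed at a rate equivalent to 11.2 kg/ha (acetone or water carrier). Greenhouse growth with watering as needed; ratings reflect percent inhibition per species, recorded around day 11 (range 10–14).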

Indian Mustard = assay: Pre-emergent herbicidal activity (Table A); conditions: Brassica juncea, pre-emergence, Inmu, 11.2 kg/ha, 10-14 days, read-out: herbicidal rating (% inhibition)
In short: as §3

Annual Bluegrass = assay: Pre-emergent herbicidal activity (Table A); conditions: pre-emergence, Anbg, 11.2 kg/ha, 10-14 days, read-out: herbicidal rating (% inhibition)
In short: as §3

Seedling Johnsongrass = assay: Pre-emergent herbicidal activity (Table A); conditions: Sorghum halepense, pre-emergence, Sejg, 11.2 kg/ha, 10-14 days, read-out: herbicidal rating (% inhibition)
In short: as §3

Wibw = assay: plant injury after spraying emerged plants (Table D); design: scale not given here
In short: (§4)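 Injury to emerged plants was assessed after spraying. Plants came from seeds or propagules sown into sterilized, sieved silt-loam topsoil under a 1.27 cm layer of 50% topsoil with peat moss, vermiculite and wetting agent, then kept on greenhouse capillary mats with subirrigation.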

Prmi = assay: as above; design: scale not given here
In short: as §4

Mogl = assay: as above; design: scale not given here
In short: as §4

Vele = assay: as above; design: scale not given here
In short: as §4

Hese = assay: as above; design: scale not given here
In short: as §4

COC(=O)c1c(OC)nc(C(F)(F)F)c(-c2nnc(C)o2)c1CC(C)C [Compound 103, 3-pyridinecarboxylic acid, 2-methoxy-5-(5-methy1-1,3,4-oxadiazo1-2-yl)-4-(2-methylpropyl)-6-(trifluoromethyl)-, methyl ester]
1: plant injury rating, Rape (Rape; 1.1219 kg/ha) | plant injury rating, Wibw (Wibw; 1.1219 kg/ha) | plant injury rating, Mogl (Mogl; 0.2803 kg/ha) | plant injury rating, Mogl (Mogl; 1.1219 kg/ha) | plant injury rating, Hese (Hese; 1.1219 kg/ha)
0: plant injury rating, Jiwe (Jiwe; 0.0701 kg/ha) | plant injury rating, Jiwe (Jiwe; 0.2803 kg/ha) | plant injury rating, Rape (Rape; 0.0701 kg/ha) | plant injury rating, Rape (Rape; 0.2803 kg/ha) | plant injury rating, Cotz (Cotz; 0.0701 kg/ha) | plant injury rating, Cotz (Cotz; 0.2803 kg/ha) | plant injury rating, Cotz (Cotz; 1.1219 kg/ha) | plant injury rating, Cotz (Cotz; 5.6050 kg/ha) | plant injury rating, Wibw (Wibw; 0.0701 kg/ha) | plant injury rating, Wibw (Wibw; 0.2803 kg/ha) | plant injury rating, Prmi (Prmi; 0.0701 kg/ha) | plant injury rating, Prmi (Prmi; 0.2803 kg/ha) | plant injury rating, Prmi (Prmi; 1.1219 kg/ha) | plant injury rating, Prmi (Prmi; 5.6050 kg/ha) | plant injury rating, Mogl (Mogl; 0.0701 kg/ha) | plant injury rating, Vele (Vele; 0.0701 kg/ha) | plant injury rating, Vele (Vele; 0.2803 kg/ha) | plant injury rating, Vele (Vele; 1.1219 kg/ha) | plant injury rating, Hese (Hese; 0.0701 kg/ha) | plant injury rating, Hese (Hese; 0.2803 kg/ha)
3: plant injury rating, Rape (Rape; 5.6050 kg/ha) | plant injury rating, Hese (Hese; 5.6050 kg/ha)
2: plant injury rating, Jiwe (Jiwe; 1.1219 kg/ha) | plant injury rating, Jiwe (Jiwe; 5.6050 kg/ha) | plant injury rating, Wibw (Wibw; 5.6050 kg/ha) | plant injury rating, Mogl (Mogl; 5.6050 kg/ha) | plant injury rating, Vele (Vele; 5.6050 kg/ha)
75 to 100%: inhibition at 11200 g/ha (Wild Buckwheat) | inhibition at 11200 g/ha (Indian Mustard) | inhibition at 11200 g/ha (Annual Bluegrass) | inhibition at 11200 g/ha (Seedling Johnsongrass)
